Results published in patent publication US8518952B2, “6 substituted 2-heterocyclylamino pyrazine compounds as CHK-1 inhibitors” (Pfizer Inc., priority 2008, dated 2013).

Key:
Mia Paca-2 cells = experiment: Histone H3 (Ser10) phosphorylation ELISA, abrogation of camptothecin-induced G2 arrest (CHK-1 cellular assay); assay type: cell-based; details: Homo sapiens, camptothecin 8 hrs, then compound with nocodozole 16 hours
Method: The Histone H3 phosphorylation ELISA assay detects cells entering mitosis and represents the primary in vitro cell-based assay used to measure the cellular potency of compounds in abrogating the G2 check point induced by DNA damage in HeLa cells or MiaPaCa cells. The candidate substances were assayed for potency in their ability to inhibit camptothecin-induced G2 arrest, as measured by an increase in Histone H3 phosphorylation on Ser10, a marker of entry into mitosis.
The PathScan Phospho-Histone H3 (Ser10) Sandwich ELISA kit was used (Cell Signaling, #7155) and the assay was performed according to manufacturer recommendations. Tissue culture plates were seeded with HeLa cells or MiaPaCa Cells and allowed to attach overnight. The cells were then treated with camptothecin to induce DNA damage for 8 hrs. Candidate substances or diluent were then added in the presence of nocodozole for 16 hours. Cells were then lysed with buffer from Assay Designs (#80-1114) supplemented with protease inhibitors and frozen overnight. The fresh whole cell lysates were then thawed and added to the ELISA plate with shaking for 3 hours. Between all subsequent steps plates were washed 4 times with PBST. Biotinylated phospho Histone H3 (ser10) detection antibody was added for 1 hour, followed by addition of horseradish peroxidase-linked streptavidin secondary antibody for 1 hour. Color development of the antibody was performed with addition of TMB substrate and incubation for 2 minutes on a plate shaker. Stop solution was added and plates were read with absorbance at 450 nm on a spectrophotometer. EC50 values were calculated by sigmoid curve fitting using a four-parameter analysis.
Under the “Ki” column, data entries in the format of “%” are percent inhibition data where no Ki data is available. Data entry under the “EC50” column with an * are data obtained using Mia Paca-2 cells rather than HeLa cells. Data is not available where noted as n/a.

CHK1 (kinase domain) = target: T1, CHK1 (kinase domain) (Homo sapiens, UniProt O14757); experiment: CHK1 Ki determination, spectrophotometric coupled (pyruvate kinase/lactate dehydrogenase) assay; assay type: biochemical; details: CHK-1 kinase domain; for Ki: 150 uM ATP, 125 uM Syntide 2
T1 construct: a solution containing 1 nM of CHK1 (kinase domain)
T1 sequence (O14757 9-265 limits assumed): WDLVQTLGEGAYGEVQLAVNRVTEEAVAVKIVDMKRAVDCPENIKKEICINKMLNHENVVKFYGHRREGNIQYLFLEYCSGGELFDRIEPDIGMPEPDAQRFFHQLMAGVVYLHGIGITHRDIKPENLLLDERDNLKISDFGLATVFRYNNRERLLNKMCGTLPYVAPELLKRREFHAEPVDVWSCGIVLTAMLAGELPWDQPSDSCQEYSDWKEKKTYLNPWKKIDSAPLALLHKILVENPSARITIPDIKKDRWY
Method in brief: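 Ki values, or % inhibition where no Ki was obtained, come from a tight-binding fit that uses active enzyme concentration and the ATP Km. Rates were followed as NADH loss at 340 nm, with ADP production coupled via pyruvate kinase and lactate dehydrogenase. Reactions with ATP (150 uM) and Syntide 2 (125 uM) were started after the CHK1 kinase domain had stood with inhibitor for 15 min.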

[1] = Mia Paca-2 cells (entries marked *)
[2] = MIA PaCa-2, Mia Paca-2 cells (entries marked *)

Row | SMILES | EC50 (Mia Paca-2 cells; [1]) [nM] | Ki (CHK1 (kinase domain)) [nM] | percent inhibition (where no Ki data is available) (CHK1 (kinase domain); inhibitor concentration not given) [%^] | EC50 (Mia Paca-2 cells; [2]) [nM]
1 | Cc1cn2c(-c3cncc(N[C@@H]4CCCN[C@@H]4C)n3)cnc2s1 [Example 161, 6-(2-methylimidazo[2,1-b][1,3]thiazol-5-yl)-N-[(2R,3R)-2-methylpiperidin-3-yl]pyrazin-2-amine] | 5.66 | 1.47 |  | 
2 | CCCOC[C@@H]1C[C@@H](Nc2cncc(-c3cnc4ccccn34)n2)CN1 [Example 192, 6-(imidazo[1,2-a]pyridin-3-yl)-N-[(3R,5S)-5-(propoxymethyl)pyrrolidin-3-yl]pyrazin-2-amine] | 187 | 29.2 |  | 
3 | Fc1cccn2ncc(-c3cncc(N[C@@H]4CCCNC4)n3)c12 [Example 199, 6-(4-fluoropyrazolo[1,5-a]pyridin-3-yl)-N-[(3R)-piperidin-3-yl]pyrazin-2-amine] | 106 | 7.82 |  | 
4 | C[C@@H]1CNC[C@@H]1Nc1cncc(-c2cnn3cccc(F)c23)n1 [Example 200, 6-(4-fluoropyrazolo[1,5-a]pyridin-3-yl)-N-[(3R,4R)-4-methylpyrrolidin-3-yl]pyrazin-2-amine] | 127 |  | 26.1 | 
5 | C[C@@H]1CCNC[C@@H]1Nc1cncc(-c2cnn3ccccc23)n1 [Example 206, N-[(3R,4R)-4-methylpiperidin-3-yl]-6-(pyrazolo[1,5-a]pyridin-3-yl)pyrazin-2-amine] | 240 | 48.2 |  | 
6 | CCOc1ccc2c(c1)ncn2-c1cncc(N[C@@H]2CCCNC2)n1 [Example 214, 6-(5-ethoxy-1H-benzimidazol-1-yl)-N-[(3R)-piperidin-3-yl]pyrazin-2-amine] | 12.2 | 0.935 |  | 
7 | CCOc1ccc2c(c1)ncn2-c1cncc(N[C@@H]2CCNC2)n1 [Example 217, 6-(5-ethoxy-1H-benzimidazol-1-yl)-N-[(3R)-pyrrolidin-3-yl]pyrazin-2-amine] | 36.4 | 6.99 |  | 
8 | C[C@@H]1NCCC[C@H]1Nc1cncc(-c2cnc3ccc(C(F)(F)F)cn23)n1 [Example 227, N-[(2S,3R)-2-methylpiperidin-3-yl]-6-[6-(trifluoromethyl)imidazo[1,2-a]pyridin-3-yl]pyrazin-2-amine] |  | 92 |  | 1000
9 | C[C@H]1NCCC[C@H]1Nc1cncc(-c2cnc3ccc(C(F)(F)F)cn23)n1 [Example 228, N-[(2R,3R)-2-methylpiperidin-3-yl]-6-[6-(trifluoromethyl)imidazo[1,2-a]pyridin-3-yl]pyrazin-2-amine] |  | 6.5 |  | 24.5
10 | FC1(F)CCNCC1Nc1cncc(-c2cnc3ccc(Cl)cn23)n1 (stereo not shown) [Example 230, 6-(6-chloroimidazo[1,2-a]pyridin-3-yl)-N-(4,4-difluoropiperidin-3-yl)pyrazin-2-amine] |  | 9.2 |  | 76.8
11 | FC(F)(F)c1ccc2ncc(-c3cncc(NC4CNCCC4(F)F)n3)n2c1 (stereo not shown) [Example 231, N-(4,4-difluoropiperidin-3-yl)-6-[6-(trifluoromethyl)imidazo[1,2-a]pyridin-3-yl]pyrazin-2-amine] |  | 28.6 |  | 20000
12 | CC(C)(O)c1ccc2ncc(-c3cncc(N[C@@H]4CCCNC4)n3)n2c1 [Example 232, 2-(3-{6-[(3R)-piperidin-3-ylamino]pyrazin-2-yl}imidazo[1,2-a]pyridin-6-yl)propan-2-ol] |  | 2.6 |  | 100
13 | Nc1ccc2ncc(-c3cncc(N[C@@H]4CCCNC4)n3)n2c1 [Example 233, 3-{6-[(3R)-piperidin-3-ylamino]pyrazin-2-yl}imidazo[1,2-a]pyridin-6-amine] |  | 3.4 |  | 75.5
14 | C[C@@H]1CNC[C@@H]1Nc1cncc(-n2cnc3cc(OCC4(C)COC4)ccc32)n1 [Example 234, 6-{5-[(3-methyloxetan-3-yl)methoxy]-1H-benzimidazol-1-yl}-N-[(3R,4R)-4-methylpyrrolidin-3-yl]pyrazin-2-amine] | 89.9 | 2.5 |  | 
15 | Cc1cn2c(-c3cncc(N[C@H]4CN[C@H](CO)C4)n3)cnc2s1 [Example 237, [(2S,4R)-4-{[6-(2-methylimidazo[2,1-b][1,3]thiazol-5-yl)pyrazin-2-yl]amino}pyrrolidin-2-yl]methanol] | 46.7 | 2.98 |  | 

Further lines, results first:

Row | EC50 (Mia Paca-2 cells; [1]) [nM] | Ki (CHK1 (kinase domain)) [nM] | percent inhibition (where no Ki data is available) (CHK1 (kinase domain); inhibitor concentration not given) [%^] | EC50 (Mia Paca-2 cells; [2]) [nM] | SMILES
16 | 248 | 14 |  |  | C[C@H]1NCCC[C@H]1Nc1cncc(-c2cnc3cnccn23)n1 [Example 163, 6-(imidazo[1,2-a]pyrazin-3-yl)-N-[(2R,3R)-2-methylpiperidin-3-yl]pyrazin-2-amine]
17 | 26.1 | 7.2 |  |  | C[C@@H]1CNC[C@@H]1Nc1cncc(-c2cnc3sccn23)n1 [Example 181, 6-(imidazo[2,1-b][1,3]thiazol-5-yl)-N-[(3R,4R)-4-methylpyrrolidin-3-yl]pyrazin-2-amine]
18 | 663 | 57.8 |  |  | COC[C@@H]1C[C@@H](Nc2cncc(-c3cnc4cc(C#N)ccn34)n2)CN1 [Example 188, 3-(6-{[(3R,5S)-5-(methoxymethyl)pyrrolidin-3-yl]amino}pyrazin-2-yl)imidazo[1,2-a]pyridine-7-carbonitrile]
19 | 626 | 17.9 |  |  | C[C@@H]1C[C@@H](Nc2cncc(-c3cnc4cc(C#N)ccn34)n2)CN1 [Example 189, 3-(6-{[(3R,5R)-5-methylpyrrolidin-3-yl]amino}pyrazin-2-yl)imidazo[1,2-a]pyridine-7-carbonitrile]
20 | 4.82 | 3.05 |  |  | c1ccn2c(-c3cncc(N[C@H]4CNC[C@H]4C4CC4)n3)cnc2c1 [Example 197, N-[(3R,4R)-4-cyclopropylpyrrolidin-3-yl]-6-(imidazo[1,2-a]pyridin-3-yl)pyrazin-2-amine]
21 |  | 4.09 |  | 134 | O[C@H]1CNC[C@H](Nc2cncc(-c3cnc4ccccn34)n2)C1 [Example 203, (3R,5R)-5-{[6-(imidazo[1,2-a]pyridin-3-yl)pyrazin-2-yl]amino}piperidin-3-ol]
22 |  | 54.5 |  | 74.9 | C[C@@H]1CCNC[C@@H]1Nc1cncc(-c2cnc3ccccn23)n1 [Example 204, 6-(imidazo[1,2-a]pyridin-3-yl)-N-[(3R,4R)-4-methylpiperidin-3-yl]pyrazin-2-amine]
23 |  | 38.3 |  | 55.2 | C[C@@H]1CCNC[C@@H]1Nc1cncc(-c2cnc3cc(Cl)ccn23)n1 [Example 205, 6-(7-chloroimidazo[1,2-a]pyridin-3-yl)-N-[(3R,4R)-4-methylpiperidin-3-yl]pyrazin-2-amine]
24 |  | 2.54 |  | 4.59 | COc1ccn2c(-c3cncc(N[C@H]4CNC[C@H]4C4CC4)n3)cnc2c1 [Example 211, N-[(3R,4R)-4-cyclopropylpyrrolidin-3-yl]-6-(7-methoxyimidazo[1,2-a]pyridin-3-yl)pyrazin-2-amine]
25 |  | 17.9 |  | 64.9 | C[C@@H]1NCCC[C@H]1Nc1cncc(-c2cnc3ccc(Cl)cn23)n1 [Example 225, 6-(6-chloroimidazo[1,2-a]pyridin-3-yl)-N-[(2S,3R)-2-methylpiperidin-3-yl]pyrazin-2-amine]
26 |  | 4.6 |  | 7.17 | C[C@H]1NCCC[C@H]1Nc1cncc(-c2cnc3ccc(Cl)cn23)n1 [Example 226, 6-(6-chloroimidazo[1,2-a]pyridin-3-yl)-N-[(2R,3R)-2-methylpiperidin-3-yl]pyrazin-2-amine]
27 | 9.75 | 4.4 |  |  | C[C@@H]1CNC[C@@H]1Nc1cncc(-c2cnc3ccc(Cl)cn23)n1 [Example 229, 6-(6-chloroimidazo[1,2-a]pyridin-3-yl)-N-[(3R,4R)-4-methylpyrrolidin-3-yl]pyrazin-2-amine]
28 |  | 6.8 |  | 67.9 | Fc1ccn2c(-c3cncc(N[C@@H]4CCCNC4)n3)cnc2c1 [Example 235, 6-(7-fluoroimidazo[1,2-a]pyridin-3-yl)-N-[(3R)-piperidin-3-yl]pyrazin-2-amine]
29 | 479 | 87.6 |  |  | COC[C@@H]1C[C@@H](Nc2cncc(-c3cnc4cc(F)ccn34)n2)CN1 [Example 236, 6-(7-fluoroimidazo[1,2-a]pyridin-3-yl)-N-[(3R,5S)-5-(methoxymethyl)pyrrolidin-3-yl]pyrazin-2-amine]
